Columns and labels:
Assay in all cases: biochemical
[1] = target: BRM (Isoform 2) Bromodomain (Homo sapiens, UniProt P51531)
Source text: IC50 measurements for inhibitors using BRM SM TR-FRET Binding Assay

[2] = target: Polybromodomain-1 BromoDomain-5 (PB1-BD5) (Homo sapiens, UniProt Q86U86)
Source text: IC50 measurements for inhibitors using Polybromodomain-1 BromoDomain-5 (PB1-BD5) SM TR-FRET Binding Assay

BRG1 = BRG1 (Homo sapiens, UniProt P51532); type: binding; settings: BRG1 HTRF IC50 (µM)
Chain of BRG1 (P51532 1448-1575): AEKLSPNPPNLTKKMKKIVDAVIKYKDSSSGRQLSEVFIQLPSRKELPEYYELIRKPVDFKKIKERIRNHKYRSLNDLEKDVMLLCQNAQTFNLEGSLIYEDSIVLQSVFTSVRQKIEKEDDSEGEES
Source text: IC50 measurements for inhibitors using BRG1 TR-FRET Binding Assay

Chain of Polybromodomain-1 BromoDomain-5 (PB1-BD5) (Q86U86 645-766): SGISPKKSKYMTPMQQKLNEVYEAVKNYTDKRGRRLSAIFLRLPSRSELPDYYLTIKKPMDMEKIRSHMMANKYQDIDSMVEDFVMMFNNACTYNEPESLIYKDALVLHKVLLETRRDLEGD
Chain of BRM (Isoform 2) Bromodomain (P51531 1377-1486 isoform P51531-2): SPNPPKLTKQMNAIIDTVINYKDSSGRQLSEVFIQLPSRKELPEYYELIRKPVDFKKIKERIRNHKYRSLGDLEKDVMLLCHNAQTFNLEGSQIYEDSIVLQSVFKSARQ

Row | SMILES | IC50 [1] [µM] | IC50 [2] [µM] | IC50 (BRG1) [µM]
1 | CC1CN(c2cc(-c3ccccc3O)nnc2N)CC(C)O1 (racemic) [Example 33, 2-(6-amino-5-(2,6-dimethylmorpholino)pyridazin-3-yl)phenol] | 0.0696 | 0.024 | 
2 | Nc1nnc(-c2ccccc2O)cc1N1CCN(Cc2cccnc2)CC1 [Example 3, 2-(6-amino-5-(4-(pyridin-3-ylmethyl)piperazin-1-yl)pyridazin-3-yl)phenol] |  | 0.0252 | 0.0373
3 | CC(=O)N1CCN(c2cc(-c3ccccc3O)nnc2N)CC1 [Example 4, 1-(4-(3-amino-6-(2-hydroxyphenyl)pyridazin-4-yl)piperazin-1-yl)ethan-1-one] | 0.0717 | 0.0246 | 0.0659
4 | CN(C)CC1CCN(c2cc(-c3ccccc3O)nnc2N)CC1 [Example 5, 2-(6-amino-5-(4-((dimethylamino)methyl)piperidin-1-yl)pyridazin-3-yl)phenol] | 0.0225 |  | 0.0395
5 | Nc1nnc(-c2ccccc2O)cc1N1C[C@H]2CN(Cc3ccccc3)C[C@H]2C1 [Example 9, 2-(6-amino-5-((3aR,6aS)-5-benzylhexahydropyrrolo[3,4-c]pyrrol-2(1H)-yl)pyridazin-3-yl)phenol] | 0.0476 | 0.0182 | 0.0615
6 | CC(c1ccccc1)N1CCN(c2cc(-c3ccccc3O)nnc2N)CC1 (stereo not drawn) [Example 15, 2-(6-amino-5-(4-(1-phenylethyl)piperazin-1 - yl)pyridazin-3-yl)phenol] | 0.0361 | 0.0245 | 
7 | Nc1nnc(-c2ccccc2O)cc1N1CC2CCC(C1)N2Cc1ccccc1 [Example 16, 2-(6-amino-5-(8-benzyl-3,8-diazabicyclo[3.2.1]octan-3-yl)pyridazin-3-yl)phenol] | 0.079 | 0.0513 | 0.0563
8 | Nc1nnc(-c2ccccc2O)cc1N1CCOCC1 [Example 45, 2-(6-amino-5-morpholinopyridazin-3-yl)phenol] | 0.0715 | 0.0209 | 0.101
9 | Nc1nnc(-c2ccccc2O)cc1N1CC(Oc2ccccc2)C1 [Example 57, 2-(6-amino-5-(3-phenoxyazetidin-1-yl)pyridazin-3-yl)phenol] | 0.0356 |  | 0.0177
10 | CS(=O)(=O)N1CCN(c2cc(-c3ccccc3O)nnc2N)CC1Cc1ccccc1 (stereo not drawn) [Example 119, 2-(6-amino-5-(3-benzyl-4-(methylsulfonyl)piperazin-1-yl)pyridazin-3-yl)phenol] |  | 0.0233 | 0.0385
11 | CC1CN(c2cc(-c3ccccc3O)nnc2N)CCN1C(=O)C(C)(C)C (stereo not drawn) [Example 129, 1-(4-(3-amino-6-(2-hydroxyphenyl)pyridazin-4-yl)-2-methylpiperazin-1-yl)-2,2-dimethylpropan-1-one] | 0.0184 | 0.0068 | 0.0104
12 | CC(Oc1cc(-c2ccccc2O)nnc1N)C1CCOCC1 (stereo not drawn) [Example 168, 2-(6-amino-5-(1-(tetrahydro-2H-pyran-4-yl)ethoxy)pyridazin-3-yl)phenol] | 0.197 | 0.113 | 0.169
13 | C[C@H](Oc1cc(-c2ccccc2O)nnc1N)c1ccccc1 [Example 170, (S)-2-(6-amino-5-(1-phenylethoxy)pyridazin-3-yl)phenol] | 0.0149 | 0.0096 | 
14 | CN(C)CCOc1cc(-c2ccccc2O)nnc1N [Example 173, 2-(6-amino-5-(2-(dimethylamino)ethoxy)pyridazin-3-yl)phenol] | 0.276 | 0.257 | 0.263
15 | Nc1nnc(-c2ccccc2O)cc1OCCc1ccccc1 [Example 174, 2-(6-amino-5-phenethoxypyridazin-3-yl)phenol] | 0.019 | 0.0088 | 0.0148
16 | CC(Cc1ccccc1)Oc1cc(-c2ccccc2O)nnc1N (stereo not drawn) [Example 177, 2-(6-amino-5-((1-phenylpropan-2-yl)oxy)pyridazin-3-yl)phenol] | 0.0925 | 0.0292 | 0.1

Row | SMILES | IC50 [1] [µM] | IC50 [2] [µM] | IC50 (BRG1) [µM]
17 | CC(COc1cc(-c2ccccc2O)nnc1N)c1ccccc1 (stereo not drawn) [Example 178, 2-(6-amino-5-(2-phenylpropoxy)pyridazin-3-yl)phenol] | 0.0072 | 0.0053 | 0.0122
18 | Nc1nnc(-c2ccccc2O)cc1OC1CCN(Cc2ccccc2)C1 (stereo not drawn) [Example 180, 2-(6-amino-5-((1-benzylpyrrolidin-3-yl)oxy)pyridazin-3-yl)phenol] | 0.0597 | 0.0439 | 0.0432
19 | Cn1cc(-c2cc(-c3ccccc3O)nnc2N)cn1 [Example 187, 2-(6-amino-5-(1-methyl-1H-pyrazol-4-yl)pyridazin-3-yl)phenol] | 0.01 | 0.0037 | 
20 | CC(c1ccccc1)n1cc(-c2cc(-c3ccccc3O)nnc2N)cn1 (stereo not drawn) [Example 188, 2-(6-amino-5-(1-(1-phenylethyl)-1H-pyrazol-4-yl)pyridazin-3-yl)phenol] | 0.0057 | 0.0025 | 
21 | CN(C)Cc1ccc(-c2cc(-c3ccccc3O)nnc2N)cc1 [Example 189, 2-(6-amino-5-(4-((dimethylamino)methyl)phenyl)pyridazin-3-yl)phenol] | 0.0493 | 0.0288 | 0.0222
22 | CNc1ccc(-c2ccccc2O)nn1 [Example 204, 2-(6-(methylamino)pyridazin-3-yl)phenol] | 1.04 | 0.349 | 0.893
23 | Nc1nnc(-c2ccccc2O)cc1C1CCCC1 [Example 210, 2-(6-amino-5-cyclopentylpyridazin-3-yl)phenol] | 0.025 | 0.0149 | 0.0239
24 | Nc1nnc(-c2ccccc2O)cc1C1CCN(S(=O)(=O)c2ccccc2)C1 (stereo not drawn) [Example 217, 2-(6-amino-5-(1-(phenylsulfonyl)pyrrolidin-3-yl)pyridazin-3-yl)phenol] | 0.466 | 0.268 | 0.412
25 | Nc1nnc(-c2ccccc2O)cc1C1CCN(Cc2ccccc2)CC1 [Example 218, 2-(6-amino-5-(1-benzylpiperidin-4-yl)pyridazin-3-yl)phenol] |  | 0.0448 | 0.0553
26 | Nc1nnc(-c2ccccc2O)cc1C(=O)NCc1ccccc1 [Example 234, 3-amino-N-benzyl-6-(2-hydroxyphenyl)pyridazine-4-carboxamide] |  |  | 0.102
27 | C[C@@H]1CN(c2cc(-c3ccccc3O)nnc2N)C[C@@H](C)O1 [Example 242, 2-[6-amino-5-[(2R,6R)-2,6-dimethylmorpholin-4-yl]pyridazin-3-yl]phenol] |  |  | 0.0589
28 | C[C@@H]1CN(c2cc(-c3ccccc3O)nnc2N)C[C@H](C)O1 [Example 243, 2-[6-amino-5-[(2S,6R)-2,6-dimethylmorpholin-4-yl]pyridazin-3-yl]phenol] |  |  | 0.0324
29 | C[C@H]1CN(c2cc(-c3ccccc3O)nnc2N)C[C@H](C)O1 [Example 244, 2-[6-amino-5-[(2S,6S)-2,6-dimethylmorpholin-4-yl]pyridazin-3-yl]phenol] |  |  | 0.0379
30 | Nc1nnc(-c2ccccc2O)cc1OC1CCCNC1 (stereo not drawn) [Example 245, 2-(6-amino-5-(piperidin-3-yloxy)pyridazin-3-yl)phenol] |  |  | 0.281
31 | CN1CCCC(Oc2cc(-c3ccccc3O)nnc2N)C1 (stereo not drawn) [Example 246, 2-(6-amino-5-((1-methylpiperidin-3-yl)oxy)pyridazin-3-yl)phenol] |  |  | 0.26
32 | CC(=O)N1CCCC(Oc2cc(-c3ccccc3O)nnc2N)C1 (stereo not drawn) [Example 247, 1-(3-((3-amino-6-(2-hydroxyphenyl)pyridazin-4-yl)oxy)piperidin-1-yl)ethanone] |  |  | 0.137

— EP3262036B1, “THERAPEUTIC PYRIDAZINE COMPOUNDS AND USES THEREOF” (priority 2015, dated 2016)
